In the CheMixHub viscosity set:
± gives the uncertainty stated by the source.

Assay: xn = mol fraction of the nth substance listed

CCCCOC(C)=O + CCO
viscosity [mPa·s], 101 kPa
Conditions	x1 = 0.0995	x1 = 0.1987	x1 = 0.2996	x1 = 0.4023	x1 = 0.4982	x1 = 0.5987	x1 = 0.693	x1 = 0.7968	x1 = 0.9004
298.15 K	0.937 ± 0.012	0.835 ± 0.01	0.765 ± 0.01	0.71 ± 0.009	0.668 ± 0.008	0.647 ± 0.008	0.639 ± 0.008	0.641 ± 0.008	0.648 ± 0.007
303.15 K	0.871 ± 0.011	–	0.712 ± 0.009	0.663 ± 0.009	–	0.612 ± 0.008	0.61 ± 0.008	0.616 ± 0.008	0.621 ± 0.007
308.15 K	0.797 ± 0.011	0.719 ± 0.01	0.657 ± 0.009	0.621 ± 0.008	0.591 ± 0.008	0.582 ± 0.008	0.582 ± 0.008	0.582 ± 0.007	0.587 ± 0.007
313.15 K	0.734 ± 0.01	0.671 ± 0.009	0.621 ± 0.009	0.591 ± 0.008	0.563 ± 0.008	0.558 ± 0.008	0.555 ± 0.007	0.562 ± 0.007	–

Clc1ccccc1Cl + COc1ccccc1
viscosity [mPa·s], 101 kPa
Conditions	x2 = 0.0977	x2 = 0.1979	x2 = 0.3012	x2 = 0.403	x2 = 0.4955	x2 = 0.5995	x2 = 0.6967	x2 = 0.7951	x2 = 0.8931
298.15 K	1.201 ± 0.011	1.172 ± 0.011	1.142 ± 0.01	1.118 ± 0.01	1.097 ± 0.01	1.081 ± 0.01	1.056 ± 0.0099	1.037 ± 0.0097	1.022 ± 0.0096
303.15 K	1.121 ± 0.01	1.094 ± 0.01	1.067 ± 0.0099	1.042 ± 0.0097	1.019 ± 0.0096	1 ± 0.0095	0.9808 ± 0.0094	0.9631 ± 0.0093	0.9486 ± 0.0092
308.15 K	1.046 ± 0.0097	1.02 ± 0.0096	0.9938 ± 0.0094	0.9716 ± 0.0093	0.949 ± 0.0091	0.9288 ± 0.009	0.9098 ± 0.0089	0.8944 ± 0.0088	0.881 ± 0.0088
313.15 K	0.9762 ± 0.0094	0.9514 ± 0.0092	0.9268 ± 0.009	0.9045 ± 0.0089	0.8869 ± 0.0088	0.8664 ± 0.0086	0.8479 ± 0.0085	0.832 ± 0.0085	0.8178 ± 0.0084

Oc1ccccc1Cl + CCCCCOC(C)=O
Conditions	viscosity [mPa·s]
298.15 K, 101 kPa, x1 = 0.5	1.202 ± 0.012

CC(C)C(C)O (centres undefined) + NCc1ccccc1
viscosity [mPa·s], 101.33 kPa
Conditions	x2 = 0.0999	x2 = 0.2	x2 = 0.3002	x2 = 0.4001	x2 = 0.4997	x2 = 0.5998	x2 = 0.6999	x2 = 0.7997	x2 = 0.9
298.15 K	3.336 ± 0.041	3.109 ± 0.039	2.89 ± 0.036	2.683 ± 0.034	2.49 ± 0.032	2.315 ± 0.029	2.131 ± 0.027	1.96 ± 0.025	1.81 ± 0.023
303.15 K	2.903 ± 0.037	2.663 ± 0.034	2.443 ± 0.031	2.249 ± 0.029	2.084 ± 0.027	1.927 ± 0.025	1.792 ± 0.023	1.673 ± 0.021	1.571 ± 0.02
308.15 K	2.388 ± 0.032	2.184 ± 0.029	2.009 ± 0.027	1.853 ± 0.025	1.724 ± 0.023	1.614 ± 0.021	1.521 ± 0.02	1.449 ± 0.018	1.404 ± 0.017

CC(C)c1ccccc1 + COC(=O)c1ccccc1
viscosity [mPa·s], 101 kPa
Conditions	x2 = 0.1127	x2 = 0.2209	x2 = 0.3251	x2 = 0.429	x2 = 0.5302	x2 = 0.6213	x2 = 0.7199	x2 = 0.8144	x2 = 0.9082
303.15 K	0.729 ± 0.011	0.795 ± 0.011	0.865 ± 0.012	0.94 ± 0.01	1.029 ± 0.012	1.128 ± 0.013	1.244 ± 0.013	1.364 ± 0.014	1.502 ± 0.015
313.15 K	0.649 ± 0.011	0.694 ± 0.011	0.75 ± 0.01	0.819 ± 0.012	0.883 ± 0.012	0.961 ± 0.012	1.044 ± 0.013	1.132 ± 0.013	1.235 ± 0.014

CCCN + COCCOCCOC
298.15 K, 101 kPa
Conditions	viscosity [mPa·s]
x1 = 0.0113	0.985 ± 0.01
x2 = 0.0044	0.359 ± 0.007
x2 = 0.0179	0.368 ± 0.007
x2 = 0.0461	0.385 ± 0.007
x2 = 0.0659	0.4 ± 0.007
x2 = 0.0913	0.417 ± 0.007
x2 = 0.1293	0.443 ± 0.007
x2 = 0.1685	0.472 ± 0.007
x2 = 0.1892	0.487 ± 0.007
x2 = 0.2354	0.518 ± 0.007
x2 = 0.2682	0.541 ± 0.007
x2 = 0.2727	0.544 ± 0.007
x2 = 0.315	0.575 ± 0.008
x2 = 0.3201	0.579 ± 0.008
x2 = 0.3647	0.613 ± 0.008
x2 = 0.3683	0.615 ± 0.008
x2 = 0.4079	0.644 ± 0.008
x2 = 0.4628	0.679 ± 0.008
x2 = 0.5243	0.721 ± 0.008
x2 = 0.5823	0.757 ± 0.008
x2 = 0.6408	0.796 ± 0.009
x2 = 0.7358	0.84 ± 0.009
x2 = 0.79	0.873 ± 0.009
x2 = 0.8565	0.908 ± 0.009
x2 = 0.897	0.935 ± 0.009
x2 = 0.9375	0.955 ± 0.009

C1COCOC1 + NC=O
viscosity [mPa·s], 101 kPa
Conditions	x2 = 0.6012	x2 = 0.6156	x2 = 0.8658	x2 = 0.8689	x2 = 0.9552	x2 = 0.9555
298.15 K	2.039 ± 0.038	–	3.119 ± 0.042	–	–	3.328 ± 0.039
313.15 K	–	1.581 ± 0.029	–	2.196 ± 0.029	2.366 ± 0.027	–

CCCN + CCC(C)(C)O
Conditions	viscosity [mPa·s]
308.15 K, 101 kPa, x2 = 0.9498	2.305 ± 0.018

C=COC(C)=O + CCO
303.15 K, 101.33 kPa
Conditions	viscosity [mPa·s]
x1 = 0.0998	0.787 ± 0.005
x1 = 0.2001	0.651 ± 0.005
x1 = 0.2995	0.564 ± 0.004
x1 = 0.4007	0.501 ± 0.004
x1 = 0.5002	0.457 ± 0.003
x1 = 0.599	0.425 ± 0.003
x1 = 0.7013	0.402 ± 0.003
x1 = 0.8005	0.386 ± 0.003
x1 = 0.9002	0.378 ± 0.003

Clc1ccccc1Cl + CCNc1ccccc1
viscosity [mPa·s], 101 kPa
Conditions	303.15 K	308.15 K
x2 = 0.0789	1.286 ± 0.013	1.19 ± 0.013
x2 = 0.1156	1.309 ± 0.013	1.21 ± 0.013
x2 = 0.1659	1.338 ± 0.013	1.234 ± 0.013
x2 = 0.2569	1.391 ± 0.014	1.277 ± 0.013
x2 = 0.3287	1.43 ± 0.014	1.309 ± 0.014
x2 = 0.3968	1.467 ± 0.014	1.339 ± 0.014
x2 = 0.4925	1.516 ± 0.015	1.379 ± 0.014
x2 = 0.5421	1.541 ± 0.015	1.399 ± 0.014
x2 = 0.6325	1.584 ± 0.015	1.434 ± 0.014
x2 = 0.6897	1.611 ± 0.015	1.454 ± 0.015
x2 = 0.7659	1.646 ± 0.015	1.48 ± 0.015
x2 = 0.8425	1.678 ± 0.016	1.508 ± 0.015
x2 = 0.9121	1.709 ± 0.016	1.531 ± 0.015

CCCOC(=O)c1ccccc1 + CCCCCCC
viscosity [mPa·s], 101 kPa
Conditions	x1 = 0.099	x1 = 0.1965	x1 = 0.2952	x1 = 0.395	x1 = 0.4959	x1 = 0.5924	x1 = 0.6991	x1 = 0.7981	x1 = 0.8973
298.15 K	0.444 ± 0.007	0.516 ± 0.007	0.603 ± 0.008	0.707 ± 0.008	0.842 ± 0.009	1.017 ± 0.01	1.254 ± 0.012	1.526 ± 0.014	1.853 ± 0.017
308.15 K	0.399 ± 0.007	0.466 ± 0.007	0.531 ± 0.007	0.614 ± 0.008	0.734 ± 0.008	0.874 ± 0.009	1.051 ± 0.01	1.248 ± 0.012	1.525 ± 0.014
318.15 K	0.358 ± 0.007	0.408 ± 0.007	0.472 ± 0.007	0.55 ± 0.007	0.638 ± 0.008	0.754 ± 0.008	0.897 ± 0.009	1.064 ± 0.01	1.266 ± 0.012

ClCCOCCCl + FB(F)F
101 kPa, x2 = 0.0939
Conditions	viscosity [mPa·s]
293.15 K	23.94 ± 0.64
303.15 K	14.59 ± 0.4
313.15 K	9.569 ± 0.26
323.15 K	6.506 ± 0.18
